Series [1] in a line: Highest frequency of moderate liver toxicity observed during clinical trials, expressed as a percentage. [column '% BIOL' in source]. The settings on record: human.
Series [2] can be described thus: Proposed mechanism(s) of liver damage. [column 'MEC' in source]. The settings on record: human.
Series [3] in a line: Times to onset, minimal and maximal, observed in the indexed observations. [column 'DELAI' in source]. The settings on record: human.
For series [4] the following is noted: human.
For series [5] the following is noted: human. This is another data set of the same source.
For series [6] the following is noted: human. This is another data set of the same source.
The conditions of series [7]: human. The source holds these as a separate data set.
The conditions of series [8]: human. The source holds these as a separate data set.
The conditions of series [9]: human. This is another data set of the same source.
For series [10] the following is noted: human. The source holds these as a separate data set.
A short description of series [11]: Presence of at least one case with successful reintroduction. [column 'REINT' in source]. The settings on record: human.
The conditions of series [12]: human. This is another data set of the same source.
The conditions of series [13]: human. The source holds these as a separate data set.
For series [14] the following is noted: human, serum.
The conditions of series [15]: human, serum, 4383 h.
The nature of series [16]: Highest frequency of acute liver toxicity observed during clinical trials, expressed as a percentage. [column '% AIGUE' in source]. The note with it: human.
The conditions of series [17]: human, serum. This is another data set of the same source.

The values below come from ChEMBL document CHEMBL3137667, “[Drug-induced liver injury; fourteenth updated edition of the bibliographic database of liver injuries and related drugs]” (Gastroenterol Clin Biol, 2004).
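For Hepatotoxicity (association with vascular disease) in this document: count of indexed literature references reporting vascular liver injury in humans, e.g. peliosis hepatitis, hepatic veno-occlusive disease or Budd-Chiari syndrome.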
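For Hepatotoxicity (benign tumour) in this document: value is a count of indexed literature references citing a benign tumour confirmed by histopathology.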
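For Hepatotoxicity (choleostasis) in this document: human cholestatic liver injury, shown by histopathology or by peak ALT or AST elevation over alkaline phosphatase ratio below 2, value counts indexed literature reports.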
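For Hepatotoxicity (chronic liver disease) in this document: chronic liver injury confirmed by histopathology or persistently raised serum aminotransferase activity beyond 6 months, value given as the count of indexed literature references.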
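For Hepatotoxicity (cirrhosis) in this document: value is a count of indexed literature references reporting cirrhosis confirmed by histopathology.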
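For Hepatotoxicity (cytolytic) in this document: human cytolytic liver injury, shown by histopathology or by a ratio above 5 of peak ALT or AST elevation to alkaline phosphatase elevation, value counts indexed references.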
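For Hepatotoxicity (granulomatous hepatitis) in this document: value is a count of indexed literature references reporting granulomatous liver disease confirmed by histopathology.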
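For Hepatotoxicity (malignant tumour) in this document: malignant tumour confirmed by histopathology, value gives the count of indexed literature references reporting it.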
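For Hepatotoxicity (severe hepatitis) in this document: human clinical data: severe hepatitis, meaning potentially life-threatening liver failure or clinically observed cases, the value counts how many indexed literature references report it.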
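For Hepatotoxicity (steatosis) in this document: steatosis confirmed by histopathology, value is the count of indexed references.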

Turning to `NC(=O)NO` [HYDROXYUREA], the “Hepatotoxicity (moderate)” value amounted to 12.5% in series [1] and 5 in series [14]. Moreover, the “Hepatotoxicity (mechanism)” value in series [2] is given as “Allergic”. Besides, the “Hepatotoxicity (time to onset)” value in series [3] is on record as 1 day - 3 months. In [4], the “Hepatotoxicity (benign tumour)” value is 0. Moreover, the “Hepatotoxicity (choleostasis)” value in series [5] amounted to 1. In series [6], the “Hepatotoxicity (steatosis)” value amounted to 0. Besides, the “Hepatotoxicity (severe hepatitis)” value in series [7] amounted to 1. For the same compound, the “Hepatotoxicity (cytolytic)” value in series [8] turned out to be 3. Further, in series [9], the “Hepatotoxicity (granulomatous hepatitis)” value is given as 2. In addition, the “Hepatotoxicity (cirrhosis)” value in series [10] came out at 0. In addition, the “Hepatotoxicity (successful reintroduction)” value in series [11] is given as “yes”. The “Hepatotoxicity (association with vascular disease)” value in [12] was 0. The “Hepatotoxicity (malignant tumour)” value in series [13] came to 0. Also, the “Hepatotoxicity (chronic liver disease)” value in [15] was determined as 0. Besides, the “Hepatotoxicity (acute)” value in [16] came out at 0%; in [17], 4.
As for `O=C(CCCCC(=O)Nc1c(I)cc(I)c(C(=O)O)c1I)Nc1c(I)cc(I)c(C(=O)O)c1I` [IODIPAMIDE], the figures for the “Hepatotoxicity (moderate)” value in [1] and in series [14] were 18.3% and 2, respectively. Moreover, the “Hepatotoxicity (mechanism)” value in series [2] is “Dose-dependant”. In series [3], the “Hepatotoxicity (time to onset)” value is 3 days - 1 week. In addition, the “Hepatotoxicity (benign tumour)” value in series [4] was determined as 0. Further, the “Hepatotoxicity (choleostasis)” value in series [5] is on record as 0. The “Hepatotoxicity (steatosis)” value in [6] is reported as 1. Further, in series [7], the “Hepatotoxicity (severe hepatitis)” value was 0. Moreover, the “Hepatotoxicity (cytolytic)” value in [8] is given as 6. In addition, the “Hepatotoxicity (granulomatous hepatitis)” value in series [9] is given as 0. In addition, the “Hepatotoxicity (cirrhosis)” value in series [10] amounted to 0. The “Hepatotoxicity (successful reintroduction)” value in series [11] is “yes”. In addition, the “Hepatotoxicity (association with vascular disease)” value in series [12] is given as 0. In [13], the “Hepatotoxicity (malignant tumour)” value amounted to 0. Also, the “Hepatotoxicity (chronic liver disease)” value in series [15] came out at 0. The “Hepatotoxicity (acute)” value in [16] amounted to 0%; in series [17], 6.
Turning to `CC(C)NNC(=O)COc1ccc(Cl)cc1` [IPROCLOZIDE], the results for the “Hepatotoxicity (moderate)” value in series [1] and in series [14] were 0% and 0, respectively. The “Hepatotoxicity (mechanism)” value in series [2] is “Toxic Metabolite”. Further, the “Hepatotoxicity (time to onset)” value in series [3] stood at 1 week - 1 month. The “Hepatotoxicity (benign tumour)” value in series [4] is on record as 0. Further, the “Hepatotoxicity (choleostasis)” value in series [5] was determined as 1. In series [6], the “Hepatotoxicity (steatosis)” value turned out to be 0. The “Hepatotoxicity (severe hepatitis)” value in [7] is 2. For the same compound, in series [8], the “Hepatotoxicity (cytolytic)” value was found to be 3. Moreover, in series [9], the “Hepatotoxicity (granulomatous hepatitis)” value is on record as 0. In addition, in series [10], the “Hepatotoxicity (cirrhosis)” value was found to be 0. For the same compound, the “Hepatotoxicity (successful reintroduction)” value in series [11] was “yes”. Further, the “Hepatotoxicity (association with vascular disease)” value in [12] amounted to 0. In addition, the “Hepatotoxicity (malignant tumour)” value in series [13] is reported as 0. The “Hepatotoxicity (chronic liver disease)” value in series [15] turned out to be 0. Also, the entries for the “Hepatotoxicity (acute)” value in series [16] and in series [17] were 0% and 3, respectively.
In the case of `Cc1oncc1C(=O)Nc1ccc(C(F)(F)F)cc1` [LEFLUNOMIDE], the “Hepatotoxicity (moderate)” value was 56.7% in series [1] and 36 in series [14]. Further, the “Hepatotoxicity (mechanism)” value in [2] is “Dose-dependant”. The “Hepatotoxicity (time to onset)” value in series [3] was determined as 4 weeks - 20 months. The “Hepatotoxicity (benign tumour)” value in series [4] turned out to be 0. For the same compound, in series [5], the “Hepatotoxicity (choleostasis)” value worked out at 0. Also, in series [6], the “Hepatotoxicity (steatosis)” value is 1. Further, in [7], the “Hepatotoxicity (severe hepatitis)” value was 3. Further, the “Hepatotoxicity (cytolytic)” value in [8] was 5. Further, the “Hepatotoxicity (granulomatous hepatitis)” value in series [9] worked out at 0. Further, the “Hepatotoxicity (cirrhosis)” value in series [10] is on record as 1. Moreover, the “Hepatotoxicity (successful reintroduction)” value in [11] is listed as “yes”. Further, the “Hepatotoxicity (association with vascular disease)” value in series [12] was 0. In [13], the “Hepatotoxicity (malignant tumour)” value is 0. Besides, the “Hepatotoxicity (chronic liver disease)” value in series [15] is 0. In addition, the results for the “Hepatotoxicity (acute)” value in series [16] and in series [17] were 10% and 6, respectively.
For the compound `CN1C[C@H](CC#N)C[C@@H]2c3cccc4[nH]c(Cl)c(c34)C[C@H]21` [LERGOTRILE], the figures for the “Hepatotoxicity (moderate)” value in series [1] and in series [14] were 63.2% and 6, respectively. Besides, in series [2], the “Hepatotoxicity (mechanism)” value is “Dose-dependant”. In [3], the “Hepatotoxicity (time to onset)” value came to 4 days - 5 months. Also, in series [4], the “Hepatotoxicity (benign tumour)” value is 0. Besides, in [5], the “Hepatotoxicity (choleostasis)” value worked out at 0. Also, in series [6], the “Hepatotoxicity (steatosis)” value is 0. Besides, the “Hepatotoxicity (severe hepatitis)” value in [7] is given as 0. In addition, the “Hepatotoxicity (cytolytic)” value in series [8] is listed as 4. Besides, in series [9], the “Hepatotoxicity (granulomatous hepatitis)” value is 0. Besides, in series [10], the “Hepatotoxicity (cirrhosis)” value is 0. The “Hepatotoxicity (successful reintroduction)” value in [11] was “yes”. Also, the “Hepatotoxicity (association with vascular disease)” value in series [12] is 0. The “Hepatotoxicity (malignant tumour)” value in series [13] was 0. The “Hepatotoxicity (chronic liver disease)” value in series [15] stood at 0. For the same compound, the “Hepatotoxicity (acute)” value in series [16] came out at 15.8%; in series [17] it was 5.
